Measured values as given in patent EP0813871A1, “Berberine derivates for inhibiting production of HSP47” (Kureha Chemical Industry Co., Ltd., priority 1996, dated 1997).
Where a name gives a salt, the structure may show the parent alone.

Tests used:
mice = conditions: P. acnes intraperitoneally, lipopolysaccharide intraperitoneally 7 days later; cited from earlier work
[1] = agent containing berberine as an active ingredient; cited from earlier work
HSP47 = assay: Inhibition of HSP47 production in heat-shocked human cancer cell lines (Western blotting); format: cell-based; conditions: Western blot, 20 µM
Procedure: The following various human cancer cell lines were cultured under 5% CO2, at 37 °C, except for the heat shock treatment period. The lung cancer cell line H69 (ATCC HTB 119), the stomach cancer cell line KATO III (ATCC HTB 103), the colon cancer cell line COLO 205 (ATCC CCL 222), and the prostate cancer cell line DU145 (ATCC HTB 81) were cultured in an RPMI1640 medium containing 10% inactivated FBS.
The breast cancer cell line MCF7 (ATCC HTB 22) was cultured in an RPMI1640 medium containing 10^-8 M β-estradiol and 10% inactivated FBS.
The kidney cancer cell line ACHN (ATCC CRL 1611) was cultured in an MEM medium containing 10% inactivated FBS.
The berberine hydrochloride of the formula (III) (the final concentration = 20 µM: Matsuura Yakugyo) was added to each medium of the above human cancer cell lines 2 days after the inoculation. After the berberine hydrochloride treatment for 24 hours, a heat shock was applied at 45 °C for 15 minutes, and the cells were then cultured at 37 °C overnight. The control tests were carried out by performing the above procedures except that the berberine hydrochloride was not added.
The cells treated in the above (2) were homogenized, and the amounts of HSP47 produced were measured by the Western blotting method.
The cells treated in the above (2) were washed with PBS(-), and 1 ml of lysis buffer [1.0% NP-40, 0.15 M sodium chloride, 50 mM Tris-HCl (pH 8.0), 5 mM-EDTA, 2 mM-N-ethylmaleimide, 2 mM phenylmethylsulfonyl fluoride, 2 µg/ml leupeptin, and 2 µg/ml pepstatin] was added. The whole was allowed to stand for 20 minutes on ice, and then centrifuged at 4 °C and 12000 rpm for 20 minutes. The resulting supernatant (10 µl) was added to 790 µl of PBS(-), and then 200 µl of a protein assay dye reagent solution (Dye Reagent Concentrate: Bio-Rad Laboratories, Catalogue No. 500-0006) was added. The whole was allowed to stand at room temperature for 5 minutes, and the absorbance at 595 nm was measured to determine the amounts of proteins.
For the SDS-polyacrylamide gel electrophoresis (SDS-PAGE) of the samples, the protein concentration of which were measured, aliquots containing the same amount of protein were loaded onto the gel. The SDS-PAGE was performed according to the Laemmli method. After the electrophoresis, the blotting and then blocking were carried out in accordance with the methods described in Example 1. More particularly, the gel was brought into contact with a 0.45 µm nitrocellulose membrane (Schleicher & Schuell, Catalogue No. 401196) at room temperature and 100 V, using a protein-transferring apparatus (Trans-Blot Electrophoretic Transfer Cell: Bio-Rad), and blotting was carried out for 3 hours. The blotting buffer used was same as that used in Example 1 (3). After blotting, the nitrocellulose membrane was incubated in a 10% skimmed milk-PBS(-) solution at room temperature for 30 minutes, to block non-specific bindings.
After blocking, the first antibody reaction was carried out on the nitrocellulose membrane, using a screener blotter (Sanplatec), and the anti-human-HSP47 rat polyclonal antibody prepared in Example 1. Thereafter, the nitrocellulose membrane was washed with two fresh PBS(-) solutions for 5 minutes, using a slow rocking shaker, and then with four fresh PBS(-)-0.1% Tween 20 (Bio-Rad, Catalogue No. 170-6531) solutions for 15 minutes, and finally, with two fresh PBS(-) solutions for 5 minutes.
After washing, the second antibody reaction was carried out for 2 hours, using 5 ml of a solution prepared by diluting a peroxidase-labeled goat anti-rat IgG antibody (Southern Biotechnology, Catalogue No. 3030-05) 5000-fold with a PBS(-) solution containing 2% skimmed milk. After the reaction, the nitrocellulose membrane was washed with two fresh PBS(-) solutions for 5 minutes, and with five fresh PBS(-)-0.1% Tween 20 solutions for 15 minutes, using a slow rocking shaker, and finally, with two fresh PBS(-) solutions for 5 minutes. […]

COc1ccc2cc3[n+](cc2c1OC)CCc1cc2c(cc1-3)OCO2 [berberine]
survival rate of mice (mice): effectively improved
anti-GEM (glomerular basement membrane) nephritis [1]: effectively improved

COc1ccc2cc3[n+](cc2c1OC)CCc1cc2c(cc1-3)OCO2 [berberine hydrochloride]
band of the molecular weight of approximately 47 kDa (HSP47; breast cancer cell line MCF7): no band of the molecular weight of approximately 47 kDa was detected
band of the molecular weight of approximately 47 kDa (HSP47; colon cancer cell line COLO 205): no band of the molecular weight of approximately 47 kDa was detected
band of the molecular weight of approximately 47 kDa (HSP47; kidney cancer cell line ACHN, in comparison with the control tests): faint
band of the molecular weight of approximately 47 kDa (HSP47; lung cancer cell line H69): no band of the molecular weight of approximately 47 kDa was detected
band of the molecular weight of approximately 47 kDa (HSP47; prostate cancer cell line DU145): no band of the molecular weight of approximately 47 kDa was detected
band of the molecular weight of approximately 47 kDa (HSP47; stomach cancer cell line KATO III): no band of the molecular weight of approximately 47 kDa was detected
